These results are taken from patent US8183262B2, “Pyridine derivatives as mGluR2 antagonists” (Hoffmann-La Roche Inc., priority 2007, dated 2012).

One data set concerns the target T1, rat mGlu2 receptor (Rattus norvegicus, UniProt P31421).
T1 construct: expressed in transfected cells; membranes prepared
The data set is described as follows: [3H]-LY354740 binding on mGlu2 transfected CHO cell membranes. The following applies: inhibition of 10 nM [3H]-LY354740 binding, membranes of CHO cells transfected with rat mGlu2, room temperature, 1 hour. The gist of the method: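 Membranes from CHO cells stably expressing rat mGlu2 (25 μg protein/ml) incubated 1 hour at room temperature with 10 nM [3H]-LY354740 and test compound in 50 mM Tris-HCl, 2 mM MgCl2, pH 7.4. Non-specific binding defined with 10 μM DCG IV; bound radioactivity counted after filtration. IC50 from four-parameter logistic fit.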

In general, melting point refers to the temperature, or range, at which the solid turns liquid. As a reminder, the Ki is a dissociation constant, usually derived from enzyme kinetics or from competition with a known ligand. Read a high Ki as lower affinity.

T1 sequence (P31421 19-872): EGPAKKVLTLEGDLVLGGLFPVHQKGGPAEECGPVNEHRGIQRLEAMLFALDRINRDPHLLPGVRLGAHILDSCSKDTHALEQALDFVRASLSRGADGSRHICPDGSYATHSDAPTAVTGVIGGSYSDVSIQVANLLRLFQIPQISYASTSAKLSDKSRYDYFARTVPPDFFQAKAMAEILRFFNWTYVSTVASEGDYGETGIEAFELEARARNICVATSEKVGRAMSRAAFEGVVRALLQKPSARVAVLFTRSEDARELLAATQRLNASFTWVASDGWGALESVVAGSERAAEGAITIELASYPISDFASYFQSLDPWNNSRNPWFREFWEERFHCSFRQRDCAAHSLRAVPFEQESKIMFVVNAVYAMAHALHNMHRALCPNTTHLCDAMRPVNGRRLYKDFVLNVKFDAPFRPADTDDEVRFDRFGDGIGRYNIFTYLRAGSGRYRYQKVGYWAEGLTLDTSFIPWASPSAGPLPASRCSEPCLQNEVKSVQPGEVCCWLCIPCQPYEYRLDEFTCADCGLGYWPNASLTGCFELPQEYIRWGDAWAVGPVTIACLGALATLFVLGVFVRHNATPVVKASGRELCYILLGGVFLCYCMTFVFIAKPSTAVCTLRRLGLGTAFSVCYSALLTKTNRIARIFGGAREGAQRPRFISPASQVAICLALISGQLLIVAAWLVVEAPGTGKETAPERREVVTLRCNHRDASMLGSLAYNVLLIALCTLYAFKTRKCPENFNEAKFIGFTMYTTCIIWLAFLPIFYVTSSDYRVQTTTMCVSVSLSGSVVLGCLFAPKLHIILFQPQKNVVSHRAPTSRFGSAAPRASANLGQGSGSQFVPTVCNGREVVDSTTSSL

Compound `CSc1cccc(-c2cccc(-c3cc(-c4ccc(C(F)(F)F)cc4)cc(C)n3)n2)c1` [Example 357, 6-Methyl-6′-(3-methylsulfanyl-phenyl)-4-(4-trifluoromethyl-phenyl)-[2,2′]bipyridinyl] registered a melting point of 144 °C. The compound also yielded a Ki at rat mGlu2 receptor of 39 nM.
`Cc1cc(-c2ccc(C(F)(F)F)cc2)cc(-c2ccnc(-c3ccnc(N)c3)n2)n1` [Example 360, 4-{4-[6-Methyl-4-(4-trifluoromethyl-phenyl)-pyridin-2-yl]-pyrimidin-2-yl}-pyridin-2-ylamine] registered a melting point of 217 °C. Also, the Ki on rat mGlu2 receptor was found to be 5 nM.
On the same counts, the results for `O=S(=O)(c1cccc(-c2cc(-c3nc(-c4ccc(C(F)(F)F)cc4)cc(C(F)(F)F)n3)ccn2)c1)N1CCOCC1` [Example 377, 4-(3-{4-[4-Trifluoromethyl-6-(4-trifluoromethyl-phenyl)-pyrimidin-2-yl]-pyridin-2-yl}-benzenesulfonyl)-morpholine] are 202 °C and 7 nM.
For `Nc1ccc(-c2cn(-c3nc(-c4ccc(F)c(F)c4)cc(C(F)(F)F)n3)cn2)cn1` [Example 384, 5-{1-[4-(3,4-Difluoro-phenyl)-6-trifluoromethyl-pyrimidin-2-yl]-1H-imidazol-4-yl}-pyridin-2-ylamine] the same measures were 232 °C and 32 nM.
For `O=S(=O)(c1cccc(-c2cc(-c3nc(-c4ccc(C(F)(F)F)cc4)cc(C(F)(F)F)n3)ccn2)c1)N1CCCC1` [Example 390, 2-{2-[3-(Pyrrolidine-1-sulfonyl)-phenyl]-pyridin-4-yl}-4-trifluoromethyl-6-(4-trifluoromethyl-phenyl)-pyrimidine] the same measures were 184 °C and 21 nM.
As for `NS(=O)(=O)c1cccc(-c2cccc(-c3nc(-c4ccc(F)cc4)cc(C(F)(F)F)n3)c2)c1` [Example 394, 3′-[4-(4-Fluoro-phenyl)-6-trifluoromethyl-pyrimidin-2-yl]-biphenyl-3-sulfonic acid amide], the melting point came out at 208 °C. Moreover, on rat mGlu2 receptor, affinity was put at a Ki of 3 nM.
For `Cc1cc(-c2ccc(C(F)(F)F)cc2)cc(-c2cccc(-c3cccc(S(=O)(=O)NCC(F)(F)F)c3)n2)n1` [Example 445, 3-[6′-Methyl-4′-(4-trifluoromethyl-phenyl)-[2,2′]bipyridinyl-6-yl]-N-(2,2,2-trifluoro-ethyl)-benzenesulfonamide] the same measures were 198 °C and 3 nM.
On the same counts, the results for `CCOc1cc(-c2cc(C(F)(F)F)nc(-c3ccnc(-c4cccc(S(N)(=O)=O)c4)c3)n2)ccc1C(F)(F)F` [Example 452, 3-{4-[4-(3-Ethoxy-4-trifluoromethyl-phenyl)-6-trifluoromethyl-pyrimidin-2-yl]-pyridin-2-yl}-benzenesulfonamide] are 223.5 °C and 16 nM.
